According to PubChem BioAssay (NCI):
Values joined by “and” are separate entries in the source; they are usually repeats but may differ in a detail not shown here. Identical values can stand only once.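 How tested: cells in 96-well plates exposed to compound for 48 hours at five concentrations. GI50 marks 50% less growth. TGI: concentration producing complete growth inhibition.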

Key:
Experiment in all cases: NCI anticancer screen, dose series, 48 h
[1] = test system: SN12C renal
[2] = test system: SNB-19 CNS
[3] = test system: HCT-15 colon
[4] = test system: 786-0 renal
[5] = test system: SK-MEL-2 melanoma
[6] = test system: SF-539 CNS
[7] = test system: COLO 205 colon
[8] = test system: MALME-3M melanoma
[9] = test system: HL-60(TB) leukemia
[10] = test system: NCI-H522 lung

Row | Compound | GI50 [1] | TGI [1] | GI50 [2] | TGI [2] | GI50 [3] | TGI [3] | GI50 [4] | TGI [4] | GI50 [5] | TGI [5] | GI50 [6] | TGI [6] | GI50 [7] | TGI [7] | GI50 [8] | TGI [8] | GI50 [9] | TGI [9] | GI50 [10] | TGI [10]
1 | COC(=O)c1c2c(c(C)[n+]([O-])c1C)C(=O)C(NCc1ccc(F)c(Cl)c1)=CC2=O | 1.52 µM | 3.66 µM | 2.81 µM | 9.33 µM | 1.39 µM | 3.58 µM | 3.1 µM | 22.7 µM | 2.02 µM | 5.06 µM | 1.69 µM | 3.32 µM | 0.588 µM | 2.29 µM | 0.214 µM | 0.658 µM | 1.39 µM | 5.68 µM | 1.82 µM | 4.7 µM
2 | N#Cc1ccc(-n2cnc(NC(=O)[C@H]3CCN(C#N)C3)c2)cc1 | 2.72 µM | > 70.3 µM | 3.51 µM | 98.7 µM | 2.2 µM | > 100 µM | 2.42 µM | 9.11 µM | 0.935 µM | 4.09 µM | 1.18 µM | 5.95 µM | 0.372 µM | 1.93 µM | 0.312 µM | 6.58 µM | 0.51 µM | 2.86 µM | 0.567 µM | 4.43 µM
3 | N#Cc1cccc(Nc2nccc(-c3cnn4ncccc34)n2)c1 | 0.00674 µM | > 25 µM | 0.00702 µM | > 25 µM | 0.0071 µM | > 25 µM | 0.00608 µM | > 25 µM | 0.00458 µM | 0.0105 µM | 0.00381 µM | 0.0154 µM | 0.00295 µM | 0.00663 µM | 0.0076 µM | 0.0209 µM | 0.00363 µM | < 0.0129 µM | 0.00752 µM | 0.0394 µM
4 | Cc1cc(N2CCN(C)CC2)nc(NC2CCCC(Nc3ccnc4cc(Cl)ccc34)C2)n1 (stereo not given) | 3.09 µM | 12.2 µM | 3.42 µM | 13.2 µM | 0.973 µM | 3.1 µM | 1.81 µM | 4.15 µM | 1.99 µM | 4.38 µM | 1.68 µM | 3.31 µM | 1.68 µM | 3.45 µM | 1.82 µM | 3.45 µM | 2.09 µM | 4.09 µM | 2.29 µM | 5.3 µM
5 | CC/C(=C(\c1ccc(O)cc1)c1ccc(OCCNC)cc1)c1ccccc1 | 1.98 µM and 2.86 µM and 3.02 µM | 8.84 µM and 9.58 µM and 10.4 µM | 3.61 µM and 2.67 µM and 2.63 µM | 10.9 µM and 8.03 µM and 7.01 µM | 1.8 µM and 1.56 µM | 3.92 µM and 3.2 µM and 3.71 µM | 1.73 µM and 1.72 µM | 3.13 µM and 3.19 µM and 3.35 µM | 2.04 µM and 1.85 µM and 2.1 µM | 4.02 µM and 3.65 µM and 3.85 µM | 1.74 µM and 1.7 µM and 1.59 µM | 3.15 µM and 3.09 µM and 3.01 µM | 1.78 µM and 1.8 µM | 3.28 µM and 3.31 µM and 3.44 µM | 1.76 µM and 1.66 µM and 1.82 µM | 3.49 µM and 3.29 µM and 3.5 µM | 1.88 µM and 1.89 µM and 2.39 µM | 4.43 µM and 4.07 µM and 5.44 µM | 1.78 µM and 1.5 µM and 1.97 µM | 3.84 µM and 3.19 µM and 3.83 µM
6 | C=C1CC2(OC1=O)c1ccccc1CCc1ccccc12 | – | 5.47 µM | – | 15.6 µM | – | 3.6 µM | – | 3.17 µM | – | 12.8 µM | – | 4.06 µM | – | 3.57 µM | – | 4.25 µM | – | 3.26 µM | – | 3.14 µM
7 | O=C(Nc1cc(C(F)(F)F)ccc1Cl)C(=O)C(C(=O)c1ccc2ccccc2c1)C1OC(=O)c2ccccc21 (stereo not given) | – | 21 µM | – | 20.6 µM | – | 30.1 µM | – | 17.7 µM | – | 28.7 µM | – | 6.94 µM | – | 37.3 µM | – | 27.4 µM | – | 37.3 µM | – | 20 µM
8 | C=CC(=O)Nc1cc2c(Nc3ccc(OCc4ccccn4)c(Cl)c3)ncnc2cc1OCCN1CCOCC1 | 1.49 µM | > 100 µM | 3.65 µM | > 100 µM | 2.49 µM | 14.9 µM | 1.7 µM | > 83.3 µM | 6.11 µM | 37.5 µM | 2.63 µM | > 100 µM | 6.19 µM | > 100 µM | 11.2 µM | 42.1 µM | 2.58 µM | 22.5 µM | 0.366 µM | 22.6 µM
9 | Cc1cccc(NC(=O)CC2C(=O)Nc3ccccc3S2(=O)=O)c1C (stereo not given) | – | > 100 µM | – | > 100 µM | – | > 100 µM | – | 76.1 µM | – | 75.4 µM | – | 37.6 µM | – | > 100 µM | – | 45.1 µM | – | > 100 µM | – | 33.4 µM
10 | C#C[C@]1(O)CC[C@H]2[C@@H]3CC=C4c5nc(Nc6ccc(OC)cc6OC)sc5CC[C@]4(C)[C@H]3CC[C@@]21C | 3.36 µM | 19.2 µM | 1.75 µM | 10.7 µM | 1.3 µM | 4.2 µM | 0.504 µM | 2.6 µM | 1.23 µM | 6.39 µM | 0.374 µM | 1.7 µM | 2.14 µM | 4.78 µM | 0.655 µM | 2.85 µM | 1.42 µM | 5.91 µM | 2.22 µM | 5.79 µM
11 | CC1=CCC2(C#N)CCC1C2=O (stereo not given) | – | > 100 µM | – | > 100 µM | – | > 100 µM | – | > 100 µM | – | > 100 µM | – | > 100 µM | – | > 100 µM | – | > 100 µM | – | > 100 µM | – | > 100 µM
12 | NC(=O)c1c(OCc2c(F)cc(Br)cc2F)nsc1NC(=O)NCCCCN1CCCC1 | 1.08 µM | 8.28 µM | 2.27 µM | > 10 µM | 2.85 µM | > 10 µM | 1.43 µM | 4.42 µM | > 10 µM | > 10 µM | 1.38 µM | 2.92 µM | 1.9 µM | 4.05 µM | 1.73 µM | 3.41 µM | 2.4 µM | 4.68 µM | 1.83 µM | 5.32 µM
